How the values were obtained:
[1] = target: T1, Pip/PPTR (Streptomyces coelicolor, UniProt Q9ADN3); test: Gel retardation assay of Pip/PPTR interaction; format: binding; conditions: Pip 0.2 pmol titrated with 50 pmol to 0.01 pmol antibiotic
T1 construct: gel retardation with ptr promoter DNA (PPTR) of S. pristinaespiralis
T1 sequence (Q9ADN3 1-252): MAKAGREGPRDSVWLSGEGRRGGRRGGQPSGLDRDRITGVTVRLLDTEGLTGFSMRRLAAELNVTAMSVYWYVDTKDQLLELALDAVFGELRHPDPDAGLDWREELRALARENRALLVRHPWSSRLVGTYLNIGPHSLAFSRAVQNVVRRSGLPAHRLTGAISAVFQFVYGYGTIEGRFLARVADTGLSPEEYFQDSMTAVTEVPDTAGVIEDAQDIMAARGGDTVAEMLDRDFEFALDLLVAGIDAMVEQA
Source text: FIG. 1: Gel retardation assay showing Pip/PPTR interaction. PPTR of S. pristinaespiralis contains 3 dyad symmetrical binding sites (lane A; PPTR in the absence of Pip) all of which are saturated at relatively large amounts of purified Pip (0.4 pmol; […]) resulting in a single shifted band. Smaller amounts of Pip (0.02 pmol) presented an intermediate situation in which all possible permutations of site occupancy are represented in three distinct retarded bands (lane C). Pip (0.2 pmol lanes D-M) was titrated with a range of PI from 50 pmol to 0.01 pmol (lanes D-H; D: 50 pmol; E: 10 pmol; F: 1 pmol; G: 0.1 pmol; H: 0.01 pmol). […]
Chinese hamster ovary cells (CHO-K1, ATCC: CCL 61), Baby hamster kidney cells (BHK-21, ATCC: CRL-8544), and HeLa cells (ATCC: CRL-7923) as well as stable cell lines CHO-PIT1, CHO-PIT2, CHO-TWIN195, CHO-TWIN1108 and CHO-PIT1-SEAP were cultured as described before (Fussenegger et al., 1998, Nat. Biotechnol. 16,468-472) in the presence of appropriate antibiotics: G418 400 μg/ml; zeocin 100 μg/ml. […] Transient transfected cells were routinely analyzed after 48 h for GFP or SEAP expression using fluorescence microscopy and p-nitrophenolphosphate-based light absorbance timecourse, respectively, as described before (Fussenegger et al., 1998, Nat. Biotechnol. 16, 468-472; Berger et al., 1988, Gene 66, 1-10 b). […]

[2] = target: T2, PIT/PPIR system (Streptomyces coelicolor, UniProt Q9ADN3); test: SEAP reporter assay, CHO-K1 cotransfected with pMF156 (PIT) and pMF172 (PPIR-SEAP); format: cell-based
T2 construct: pMF156/pTWIN in CHO cells, PPIR-SEAP or GFP reporter
T2 sequence (Q9ADN3 1-252): T1 sequence (Q9ADN3 1-252)
Procedure: PIT, the fusion protein of Pip and the VP16 C-terminal transactivation domain of Herpes simplex (Triezenberg et al., 1988, Genes Dev. 2, 718-729) was constructed by amplifying the S. coelicolor Pip from pGemT::Epip4 with oligos:
Chinese hamster ovary cells (CHO-K1, ATCC: CCL 61), Baby hamster kidney cells (BHK-21, ATCC: CRL-8544), and HeLa cells (ATCC: CRL-7923) as well as stable cell lines CHO-PIT1, CHO-PIT2, CHO-TWIN195, CHO-TWIN1108 and CHO-PIT1-SEAP were cultured as described before (Fussenegger et al., 1998, Nat. Biotechnol. 16,468-472) in the presence of appropriate antibiotics: G418 400 μg/ml; zeocin 100 μg/ml. Optimized CaPO4 protocols were used for high efficiency transient transfection of all cell lines (id). Transient transfected cells were routinely analyzed after 48 h for GFP or SEAP expression using fluorescence microscopy and p-nitrophenolphosphate-based light absorbance timecourse, respectively, as described before (Fussenegger et al., 1998, Nat. Biotechnol. 16, 468-472; Berger et al., 1988, Gene 66, 1-10 b). For construction of stable CHO-PIT and CHO-TWIN cell lines, CHO-K1 was cotransfected either with pMF156 or pTWIN1 and pSV2neo carrying the G418 resistance gene. CHO-PIT1-SEAP was constructed by cotransfection of pMF172 and pZeoSV2 (Invitrogen). For assessment of dose-response characteristics of PPIR -regulated gene expression, CHO-PIT1-SEAP were cultured at cell densities of 150,000/ml for 48 at various PI concentrations. The mixed populations were cloned using FACS-mediated single-cell-sorting (FACStar^Plus; Beckton Dickinson). Gel retardation assay were performed as described (Salah-Bey et al., 1995, supra) using Pip purified from an overproducing strain of E. coli. Pip (0.02 pmol) was titrated with a range of antibiotic concentrations in a reaction volume of 20 μl. Protein solutions were pre-incubated at room temperature for 15 min. in the absence or presence of PI or its derivative quinupristin in a buffer containing 10 mM Tris (pH 7.8), 10 mM MgCl2, 300 mM NaCl, 2 mM DTT and 10% glycerol. An EcoRI-HindII PPTR fragment (0.02 pmol) containing three Pip binding sites (radiolabelled using α-^32 P)dATP was added and incubated for 15 min. To minimize nonspecific protein binding and increase protein stability, 2 μg of poly dIdC and 20 μg BSA were included in the incubation mix. Protein-DNA complexes were separated on 5% polyacrylamide,TBE gels and visualized by autoradiography.
Five different sources of pristinamycin were used: The two therapeutic forms Pyostacin™ and Synercid™, pristinamycin discs, and the single compounds pristinamycin I (PI) and pristinamycin II (PII). Pyostacin™ pills (500 mg) were ground in a mortar and solubilized in DMSO or water at a stock concentration of 50 mg/ml. Synercid™ (RP 59500; Lot Nr. CB06253) was provided by Aventis in injection-ready vials containing 500 mg lyophilized antibiotic which was reconstituted in 5 ml of 5% glucose solution and frozen at -20° C. Individual pristinamycin compounds PI and PII (identical to virginiamycin M1 (VM1); Sigma ref. V2753) were solubilized in DMSO at a concentration of 50 mg/ml and kept at -20° C. Antibiotic discs containing 15 μg pristinamycin or virginiamycin (bioMerieux, ref. 54552; bioMerieux, ref. 54612) were soaked in 1 ml cell culture medium at 4i C for up to 24 h. […] The concentration of individual streptogramin components was calculated based on their fixed 70:30 ratio (w/w; PII/VM1 /dalfopristin: PI/VS1 /quinupristin). […]

Substance: pristinamycin I [PI]
- Release of Pip from PPTR [1]: completely released
- SEAP readout (slope of the p-nitrophenolphosphate-based light absorbance time courses) ([2]; +PI (2 μg/ml), 48 hr post transfection, CHO + pMF156 + pMF172): 0.03 ± 0.002
- Downregulation of PIT/PPIR-mediated SEAP expression ([2]; CHO-K1, 2 μg/ml): effective downregulation
- SEAP Production (%) ([2]; inducer 2 μg/ml, assayed 48 hr later, no inducer = 100): 7.90 ± 1.2%
